The values below come from ChEMBL document CHEMBL1157944, “Phytotoxic withanolides from Jaborosa rotacea” (J Nat Prod, 2006).

Structures are written as SMILES. Activity calls are given as the source filed them. The calls are words filed in the database; no cut-off is given here.

Common to all, as to format: functional, organism-based
For assay [1], the system named is Phalaris canariensis. Nature of the assay: Phytotoxicity against Phalaris canariensis assessed as inhibition of radicle growth at 50 ug/ml.
Assay [2] deals with Phalaris canariensis. Nature of the assay: Stimulation of radicle growth in Phalaris canariensis at 50 ug/ml.
The subject of assay [3] is Lactuca sativa. The assay is described as follows: Phytotoxicity against Lactuca sativa assessed as inhibition of germination at 50 ug/ml.
In assay [4] the test system is Lactuca sativa. Nature of the assay: Phytotoxicity against Lactuca sativa assessed as inhibition of radicle growth at 50 ug/ml.
Assay [5] deals with Lactuca sativa. The assay is described as follows: Phytotoxicity against Lactuca sativa assessed as inhibition of emergence rate index at 50 ug/ml.

Take `CC1=C(C)C(=O)O[C@]2(C1)O[C@@]1(O)C[C@H]3[C@@H](C[C@@H](O)[C@@]4(Cl)CC=CC(=O)[C@]34C)[C@@H]3CC[C@@](O)([C@@H]2C)[C@]31C`: in the assay with Phalaris canariensis [1], the outcome was Active.

Take `CC1=C(C)C(=O)O[C@]2(C1)O[C@@]1(O)C[C@H]3[C@@H](C[C@@H](O)C4=CC=CC(=O)[C@@]43C)[C@@H]3CC[C@@](O)([C@@H]2C)[C@]31C`: in the assay with Phalaris canariensis [2], the outcome was Active.

`CC1=C(C)C(=O)O[C@]2(C1)O[C@@]1(O)C[C@H]3[C@@H](C[C@H](Cl)[C@]4(O)CC=CC(=O)[C@]34C)[C@@H]3CC[C@@](O)([C@@H]2C)[C@]31C`: the result with Lactuca sativa [3], in the assay on Lactuca sativa [4] and with Lactuca sativa [5] was Active.

Consider `CC1=C(C)[C@H]2C(=O)[C@@H](C)[C@]3(O)CC[C@H]4[C@@H]5C[C@@H](O)[C@@]6(O)CC=CC(=O)[C@]6(C)[C@H]5C[C@@]2(OC1=O)[C@@]43C`, for which, in the assay on Phalaris canariensis [2], the outcome was Active.
